{"source": "patent US8192962B2", "about": "“Processes for detecting toxic substances” (Daikin Industries, Ltd., priority 2001, dated 2012)", "test_system": "DNA repair protein genes", "test": "DNA chip mRNA expression in yeast, DNA repair protein genes (Table 3)", "assay_type": "cell-based, Saccharomyces cerevisiae S288C", "settings": "incubated two hours, concentrations as in the 1st table", "outline": "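Expression change after 2 h toxicant exposure (growth-inhibiting, sub-lethal) of log-phase S. cerevisiae S288C at 25° C. Oligo-dT-purified mRNA was labeled with Cy3-dUTP or Cy5-dUTP and hybridized >12 h at 65° C. to a genome-wide chip; ratio of scanned fluorescence to control.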"}
{"smiles": "CCCCCCCCCCCCOS(=O)(=O)[O-].[Na+]", "note": "[(18), sodium lauryl sulfate]", "values": [{"measurement": "The level of expressed mRNA in the presence of chemical substance/The level of expressed mRNA in the absence of chemical substance", "setting": "yeast gene YAL015C", "value": 1.2}, {"measurement": "The level of expressed mRNA in the presence of chemical substance/The level of expressed mRNA in the absence of chemical substance", "setting": "yeast gene YAR007C", "value": 1.0}, {"measurement": "The level of expressed mRNA in the presence of chemical substance/The level of expressed mRNA in the absence of chemical substance", "setting": "yeast gene YBL019W", "value": 1.1}, {"measurement": "The level of expressed mRNA in the presence of chemical substance/The level of expressed mRNA in the absence of chemical substance", "setting": "yeast gene YBR073W", "value": 0.8}, {"measurement": "The level of expressed mRNA in the presence of chemical substance/The level of expressed mRNA in the absence of chemical substance", "setting": "yeast gene YBR272C", "value": 1.2}, {"measurement": "The level of expressed mRNA in the presence of chemical substance/The level of expressed mRNA in the absence of chemical substance", "setting": "yeast gene YCR014C", "value": 0.9}, {"measurement": "The level of expressed mRNA in the presence of chemical substance/The level of expressed mRNA in the absence of chemical substance", "setting": "yeast gene YDL017W", "value": 1.0}, {"measurement": "The level of expressed mRNA in the presence of chemical substance/The level of expressed mRNA in the absence of chemical substance", "setting": "yeast gene YDL059C", "value": 0.9}, {"measurement": "The level of expressed mRNA in the presence of chemical substance/The level of expressed mRNA in the absence of chemical substance", "setting": "yeast gene YDL200C", "value": 1.6}, {"measurement": "The level of expressed mRNA in the presence of chemical substance/The level of expressed mRNA in the absence of chemical substance", "setting": "yeast gene YDR054C", "value": 1.4}, {"measurement": "The level of expressed mRNA in the presence of chemical substance/The level of expressed mRNA in the absence of chemical substance", "setting": "yeast gene YDR369C", "value": 0.7}, {"measurement": "The level of expressed mRNA in the presence of chemical substance/The level of expressed mRNA in the absence of chemical substance", "setting": "yeast gene YEL019C", "value": 0.9}, {"measurement": "The level of expressed mRNA in the presence of chemical substance/The level of expressed mRNA in the absence of chemical substance", "setting": "yeast gene YEL037C", "value": 0.8}, {"measurement": "The level of expressed mRNA in the presence of chemical substance/The level of expressed mRNA in the absence of chemical substance", "setting": "yeast gene YER162C", "value": 0.9}, {"measurement": "The level of expressed mRNA in the presence of chemical substance/The level of expressed mRNA in the absence of chemical substance", "setting": "yeast gene YFL014W", "value": 8.8}, {"measurement": "The level of expressed mRNA in the presence of chemical substance/The level of expressed mRNA in the absence of chemical substance", "setting": "yeast gene YGL058W", "value": 0.7}, {"measurement": "The level of expressed mRNA in the presence of chemical substance/The level of expressed mRNA in the absence of chemical substance", "setting": "yeast gene YGL091C", "value": 1.8}, {"measurement": "The level of expressed mRNA in the presence of chemical substance/The level of expressed mRNA in the absence of chemical substance", "setting": "yeast gene YGL127C", "value": 1.2}, {"measurement": "The level of expressed mRNA in the presence of chemical substance/The level of expressed mRNA in the absence of chemical substance", "setting": "yeast gene YGL163C", "value": 0.8}, {"measurement": "The level of expressed mRNA in the presence of chemical substance/The level of expressed mRNA in the absence of chemical substance", "setting": "yeast gene YGL249W", "value": 1.0}, {"measurement": "The level of expressed mRNA in the presence of chemical substance/The level of expressed mRNA in the absence of chemical substance", "setting": "yeast gene YGR180C", "value": 1.9}, {"measurement": "The level of expressed mRNA in the presence of chemical substance/The level of expressed mRNA in the absence of chemical substance", "setting": "yeast gene YGR231C", "value": 1.5}, {"measurement": "The level of expressed mRNA in the presence of chemical substance/The level of expressed mRNA in the absence of chemical substance", "setting": "yeast gene YGR258C", "value": 0.9}, {"measurement": "The level of expressed mRNA in the presence of chemical substance/The level of expressed mRNA in the absence of chemical substance", "setting": "yeast gene YHR164C", "value": 1.0}, {"measurement": "The level of expressed mRNA in the presence of chemical substance/The level of expressed mRNA in the absence of chemical substance", "setting": "yeast gene YIL036W", "value": 1.3}, {"measurement": "The level of expressed mRNA in the presence of chemical substance/The level of expressed mRNA in the absence of chemical substance", "setting": "yeast gene YIL072W", "value": 1.1}, {"measurement": "The level of expressed mRNA in the presence of chemical substance/The level of expressed mRNA in the absence of chemical substance", "setting": "yeast gene YIL143C", "value": 0.9}, {"measurement": "The level of expressed mRNA in the presence of chemical substance/The level of expressed mRNA in the absence of chemical substance", "setting": "yeast gene YIL153W", "value": 0.7}, {"measurement": "The level of expressed mRNA in the presence of chemical substance/The level of expressed mRNA in the absence of chemical substance", "setting": "yeast gene YIR002C", "value": 1.2}, {"measurement": "The level of expressed mRNA in the presence of chemical substance/The level of expressed mRNA in the absence of chemical substance", "setting": "yeast gene YJL026W", "value": 2.1}, {"measurement": "The level of expressed mRNA in the presence of chemical substance/The level of expressed mRNA in the absence of chemical substance", "setting": "yeast gene YJR046W", "value": 0.7}, {"measurement": "The level of expressed mRNA in the presence of chemical substance/The level of expressed mRNA in the absence of chemical substance", "setting": "yeast gene YJR052W", "value": 1.3}, {"measurement": "The level of expressed mRNA in the presence of chemical substance/The level of expressed mRNA in the absence of chemical substance", "setting": "yeast gene YKL145W", "value": 1.5}, {"measurement": "The level of expressed mRNA in the presence of chemical substance/The level of expressed mRNA in the absence of chemical substance", "setting": "yeast gene YLR103C", "value": 1.4}, {"measurement": "The level of expressed mRNA in the presence of chemical substance/The level of expressed mRNA in the absence of chemical substance", "setting": "yeast gene YLR233C", "value": 1.2}, {"measurement": "The level of expressed mRNA in the presence of chemical substance/The level of expressed mRNA in the absence of chemical substance", "setting": "yeast gene YLR288C", "value": 1.3}, {"measurement": "The level of expressed mRNA in the presence of chemical substance/The level of expressed mRNA in the absence of chemical substance", "setting": "yeast gene YML032C", "value": 1.0}, {"measurement": "The level of expressed mRNA in the presence of chemical substance/The level of expressed mRNA in the absence of chemical substance", "setting": "yeast gene YML058W", "value": 1.5}, {"measurement": "The level of expressed mRNA in the presence of chemical substance/The level of expressed mRNA in the absence of chemical substance", "setting": "yeast gene YMR035W", "value": 2.4}, {"measurement": "The level of expressed mRNA in the presence of chemical substance/The level of expressed mRNA in the absence of chemical substance", "setting": "yeast gene YMR072W", "value": 1.9}, {"measurement": "The level of expressed mRNA in the presence of chemical substance/The level of expressed mRNA in the absence of chemical substance", "setting": "yeast gene YMR096W", "value": 1.0}, {"measurement": "The level of expressed mRNA in the presence of chemical substance/The level of expressed mRNA in the absence of chemical substance", "setting": "yeast gene YMR284W", "value": 1.3}, {"measurement": "The level of expressed mRNA in the presence of chemical substance/The level of expressed mRNA in the absence of chemical substance", "setting": "yeast gene YNL213C", "value": 1.2}, {"measurement": "The level of expressed mRNA in the presence of chemical substance/The level of expressed mRNA in the absence of chemical substance", "setting": "yeast gene YNL250W", "value": 1.0}, {"measurement": "The level of expressed mRNA in the presence of chemical substance/The level of expressed mRNA in the absence of chemical substance", "setting": "yeast gene YNL261W", "value": 1.0}, {"measurement": "The level of expressed mRNA in the presence of chemical substance/The level of expressed mRNA in the absence of chemical substance", "setting": "yeast gene YNL312W", "value": 1.1}, {"measurement": "The level of expressed mRNA in the presence of chemical substance/The level of expressed mRNA in the absence of chemical substance", "setting": "yeast gene YOL043C", "value": 1.0}, {"measurement": "The level of expressed mRNA in the presence of chemical substance/The level of expressed mRNA in the absence of chemical substance", "setting": "yeast gene YOR005C", "value": 1.0}, {"measurement": "The level of expressed mRNA in the presence of chemical substance/The level of expressed mRNA in the absence of chemical substance", "setting": "yeast gene YOR386W", "value": 1.7}, {"measurement": "The level of expressed mRNA in the presence of chemical substance/The level of expressed mRNA in the absence of chemical substance", "setting": "yeast gene YPL022W", "value": 0.9}, {"measurement": "The level of expressed mRNA in the presence of chemical substance/The level of expressed mRNA in the absence of chemical substance", "setting": "yeast gene YPL164C", "value": 1.0}, {"measurement": "The level of expressed mRNA in the presence of chemical substance/The level of expressed mRNA in the absence of chemical substance", "setting": "yeast gene YPL194W", "value": 0.8}, {"measurement": "The level of expressed mRNA in the presence of chemical substance/The level of expressed mRNA in the absence of chemical substance", "setting": "yeast gene YPR025C", "value": 1.5}]}
